Where a name gives a salt, the structure may show the parent alone.
Legend:
Assay type in all cases: biochemical
[1] = target: T1, GST-tagged recombinant full-length human Pim-2 (Homo sapiens, UniProt Q9P1W9); assay: PIM-2 Assay (as Example A); conditions: averaged IC50; 4 μM ATP, 1.0 μM PIM2tide, 1.5 nM Pim-2
T1 construct: GST-tagged recombinant full-length human Pim-2; GST
How it was run: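 IC50 was derived by 4-parameter logistic fitting of percent-of-control data over a 10-point, 3-fold series (highest 10 μM, 2% DMSO). Reactions held 1.5 nM GST-Pim-2 (full-length, human), 4 μM [γ-33P]ATP and 1.0 μM PIM2tide for 60 min at 22 °C, pH 7.4; 33P-peptide captured on P81 filters.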

PIM-1 = PIM-1 (Homo sapiens, UniProt P11309); assay: Enzyme PIM-1 Assay ([33P]ATP incorporation into PIM2tide, filter plate); conditions: averaged IC50; 35 μM ATP, 7.5 μM PIM2tide, 0.25 nM PIM-1, 60 min at 22° C.
PIM-1, sequence (P11309 whole entry, species assumed): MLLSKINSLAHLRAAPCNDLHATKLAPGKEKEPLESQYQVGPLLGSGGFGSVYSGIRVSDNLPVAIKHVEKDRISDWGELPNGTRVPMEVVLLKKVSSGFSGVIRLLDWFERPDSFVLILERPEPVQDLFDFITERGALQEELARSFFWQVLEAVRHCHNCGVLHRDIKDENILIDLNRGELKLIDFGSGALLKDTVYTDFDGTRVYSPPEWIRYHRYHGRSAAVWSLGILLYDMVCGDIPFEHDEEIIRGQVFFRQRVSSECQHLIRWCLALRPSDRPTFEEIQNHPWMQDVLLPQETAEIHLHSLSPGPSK
How it was run: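 Ten-point, 3-fold dilution series (10 μM top, 2% DMSO final) tested for inhibition of 33P transfer from 35 μM ATP to 7.5 μM PIM2tide by 0.25 nM PIM-1. Reaction 60 min, 22 °C, pH 7.4 MOPS/MgCl2 buffer; phosphocellulose capture, scintillation counting, IC50 where fitted POC equals 50.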

recombinant rat PIM-3 = recombinant rat PIM-3 (Rattus norvegicus, UniProt O70444); assay: PIM-3 Assay (as Example A); conditions: averaged IC50; 30 μM ATP, 3.75 μM PIM2tide, 0.5 nM PIM-3
How it was run: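 33P incorporation from 30 μM [γ-33P]ATP into 3.75 μM PIM2tide by 0.5 nM rat PIM-3, 60 min at 22 °C in pH 7.4 MOPS buffer, read by P81 filter capture and scintillation counting. Compounds tested in 3-fold dilutions up to 10 μM final, 2% DMSO; percent-of-control data fitted by 4-parameter logistic for IC50.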

T1 sequence (Q9P1W9 whole entry): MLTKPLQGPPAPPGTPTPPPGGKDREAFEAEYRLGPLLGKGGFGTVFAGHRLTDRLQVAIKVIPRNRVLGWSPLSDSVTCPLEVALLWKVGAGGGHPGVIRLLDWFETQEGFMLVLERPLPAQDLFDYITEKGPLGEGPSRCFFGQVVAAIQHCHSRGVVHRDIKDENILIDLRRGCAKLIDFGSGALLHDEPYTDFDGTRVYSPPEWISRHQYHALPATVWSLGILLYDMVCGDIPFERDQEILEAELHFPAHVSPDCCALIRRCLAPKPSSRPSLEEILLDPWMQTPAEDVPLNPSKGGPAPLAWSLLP

Structure (SMILES) | IC50 [1] [nM] | IC50 (PIM-1) [nM] | IC50 (recombinant rat PIM-3) [nM]
N[C@H]1CCN([C@H](c2ccc3nnc(-c4ccc5cc(F)c(C6(CO)CC6)cc5n4)n3c2)C(F)(F)F)C1 [Example 164, (1-(2-(6-((R)-1-((S)-3-aminopyrrolidin-1-yl)-2,2,2-trifluoroethyl)-[1,2,4]triazolo[4,3-a]pyridin-3-yl)-6-fluoroquinolin-7-yl)cyclopropyl)methanol dihydrochloride] | > 100 | 2.63 | 7.3
CC(C)NC(=O)c1ccc2ccc(-c3nnc4ccc([C@@H](N5CC[C@H](N)C5)C(F)(F)F)cn34)nc2c1 [Example 34, 2-(6-((R)-1-((S)-3-aminopyrrolidin-1-yl)-2,2,2-trifluoroethyl)-[1,2,4]triazolo[4,3-a]pyridin-3-yl)-N-isopropylquinoline-7-carboxamide dihydrochloride] | 41 | 0.2 | 0.3
COC[C@@H](C)Oc1cc(F)cc2ccc(-c3nnc4ccc([C@@H](N5CC[C@H](N)C5)C(F)(F)F)cn34)nc12 [Example 159, (S)-1-((R)-2,2,2-trifluoro-1-(3-(6-fluoro-8-((R)-1-methoxypropan-2-yloxy)quinolin-2-yl)-[1,2,4]triazolo[4,3-a]pyridin-6-yl)ethyl)pyrrolidin-3-amine dihydrochloride] | 48 | 0.14 | 0.5
N[C@H]1CCN([C@H](c2ccc3nnc(-c4ccc5cc(F)c(OC6CCOCC6)cc5n4)n3c2)C(F)(F)F)C1 [Example 156, (S)-1-((R)-2,2,2-trifluoro-1-(3-(6-fluoro-7-(tetrahydro-2H-pyran-4-yloxy)quinolin-2-yl)-[1,2,4]triazolo[4,3-a]pyridin-6-yl)ethyl)pyrrolidin-3-amine hydrochloride] | 38 | 0.15 | 0.4
N[C@H]1CCN([C@H](c2ccc3nnc(-c4ccc5cc(F)cc(OCCCO)c5n4)n3c2)C(F)(F)F)C1 [Example 229, 3-(2-(6-((R)-1-((S)-3-aminopyrrolidin-1-yl)-2,2,2-trifluoroethyl)-[1,2,4]triazolo[4,3-a]pyridin-3-yl)-6-fluoroquinolin-8-yloxy)propan-1-ol dihydrochloride] | 55 | 0.13 | 0.3
COc1ccc2ccc(-c3nnc4ccc([C@@H](N5CC[C@H](N)C5)C(F)(F)F)cn34)nc2c1F [Example 167, (S)-1-((R)-2,2,2-trifluoro-1-(3-(8-fluoro-7-methoxyquinolin-2-yl)-[1,2,4]triazolo[4,3-a]pyridin-6-yl)ethyl)pyrrolidin-3-amine dihydrochloride] | > 100 | 2.04 | 12
CCC(CC)C(=O)OCCOc1cc2nc(-c3nnc4ccc([C@@H](N5CC[C@H](N)C5)C(F)(F)F)cn34)ccc2cc1F [Example 288, 2-(2-(6-((R)-1-((S)-3-aminopyrrolidin-1-yl)-2,2,2-trifluoroethyl)-[1,2,4]triazolo[4,3-a]pyridin-3-yl)-6-fluoroquinolin-7-yloxy)ethyl 2-ethylbutanoate] | > 1000 | 9.42 | 56
COCCOc1ccc2cc(F)c(-c3nnc4ccc([C@@H](N5CC[C@H](N)C5)C(F)(F)F)cn34)nc2c1 [Example 326, (S)-1-((R)-2,2,2-trifluoro-1-(3-(3-fluoro-7-(2-methoxyethoxy)quinolin-2-yl)-[1,2,4]triazolo[4,3-a]pyridin-6-yl)ethyl)pyrrolidin-3-amine] | 588 | 0.31 | 1.36
C[C@@]1(N)CCN([C@H](c2ccc3nnc(-c4ccc5cccc(C6CC6)c5n4)n3c2)C(F)(F)F)C1 [Example 95, (R)-1-((R)-1-(3-(8-cyclopropylquinolin-2-yl)-[1,2,4]triazolo[4,3-a]pyridin-6-yl)-2,2,2-trifluoroethyl)-3-methylpyrrolidin-3-amine dihydrochloride] | 79 | 0.19 | 3
N[C@H]1CCN([C@H](c2ccc3nnc(-c4ccc5ccc(O[C@H]6CCC[C@@H]6O)cc5n4)n3c2)C(F)(F)F)C1 (single isomer, unassigned; diastereomer 1) [Example 319, di-hydrochloride] | 112 | 0.11 | 0.3
CC(C)Oc1cccc2ccc(-c3nnc4ccc([C@H](N5CCC(C)(O)C5)C(F)(F)F)cn34)nc12 (single isomer, unassigned; diastereomer 2) [Example 207] | > 1000 | 58 | 40
COc1ccc2ccc(-c3nnc4ccc([C@H](N5CC[C@](C)(N)C5)C(F)(F)F)cn34)nc2c1 [Example 312, (S)-3-methyl-1-((S)-2,2,2-trifluoro-1-(3-(7-methoxyquinolin-2-yl)-[1,2,4]triazolo[4,3-a]pyridin-6-yl)ethyl)pyrrolidin-3-amine] | 170 | 0.24 | 0.8
CO[C@H](C)COc1cc2nc(-c3nnc4ccc([C@@H](N5CC[C@H](N)C5)C(F)(F)F)cn34)ccc2cc1F [Example 325, (S)-1-((R)-2,2,2-trifluoro-1-(3-(6-fluoro-7-((R)-2-methoxypropoxy)quinolin-2-yl)-[1,2,4]triazolo[4,3-a]pyridin-6-yl)ethyl)pyrrolidin-3-amine di-hydrochloride] | 102 | 0.06 | 0.13
CC(C)(C)c1cccc2ccc(-c3nnc4ccc([C@@H](N5C[C@@H]6C[C@H]5CN6)C(F)(F)F)cn34)nc12 [Example 62, 2-(6-((R)-1-((1S,4S)-2,5-diazabicyclo[2.2.1]heptan-2-yl)-2,2,2-trifluoroethyl)-[1,2,4]triazolo[4,3-a]pyridin-3-yl)-8-tert-butylquinoline] | 2.9 | 0.71 | 1.4
CCSc1ccc2ccc(-c3nnc4ccc([C@@H](N5CC[C@H](N)C5)C(F)(F)F)cn34)nc2c1 [Example 266, (S)-1-((R)-1-(3-(7-(ethylthio)quinolin-2-yl)-[1,2,4]triazolo[4,3-a]pyridin-6-yl)-2,2,2-trifluoroethyl)pyrrolidin-3-amine hydrochloride] | 690 | 0.5 | 1
Cc1cc(F)cc2ccc(-c3nnc4ccc([C@@H](N5CC[C@H](N)C5)C(F)(F)F)cn34)nc12 [Example 184, (S)-1-((R)-2,2,2-trifluoro-1-(3-(6-fluoro-8-methylquinolin-2-yl)-[1,2,4]triazolo[4,3-a]pyridin-6-yl)ethyl)pyrrolidin-3-amine dihydrochloride] | > 100 | 0.41 | 1.5
COCCCOc1ccc2ccc(-c3nnc4ccc([C@@H](N5CC[C@H](N)C5)C(F)(F)F)cn34)nc2c1 [Example 275, (S)-1-((R)-2,2,2-trifluoro-1-(3-(7-(3-methoxypropoxy)quinolin-2-yl)-[1,2,4]triazolo[4,3-a]pyridin-6-yl)ethyl)pyrrolidin-3-amine dihydrochloride] | 376 | 0.2 | 0.7
CC(C)C(=O)OCCOc1cc2nc(-c3nnc4ccc([C@@H](N5CC[C@H](N)C5)C(F)(F)F)cn34)ccc2cc1F [Example 285, 2-(2-(6-((R)-1-((S)-3-aminopyrrolidin-1-yl)-2,2,2-trifluoroethyl)-[1,2,4]triazolo[4,3-a]pyridin-3-yl)-6-fluoroquinolin-7-yloxy)ethyl isobutyrate] | > 1000 | 0.57 | 8.6
CC(C)Oc1cccc2ccc(-c3nnc4ccc([C@@H](N5CC[C@](N)(CO)C5)C(F)(F)F)cn34)nc12 [Example 188, ((R)-3-amino-1-((R)-2,2,2-trifluoro-1-(3-(8-isopropoxyquinolin-2-yl)-[1,2,4]triazolo[4,3-a]pyridin-6-yl)ethyl)pyrrolidin-3-yl)methanol dihydrochloride] | 111 | 0.3 | 1
COCCOc1cc2nc(-c3nnc4ccc([C@@H](N5CC[C@H](N)C5)C(F)(F)F)cn34)ccc2cc1F [Example 120, (S)-1-((R)-2,2,2-trifluoro-1-(3-(6-fluoro-7-(2-methoxyethoxy)quinolin-2-yl)-[1,2,4]triazolo[4,3-a]pyridin-6-yl)ethyl)pyrrolidin-3-amine hydrochloride] | > 100 | 0.47 | 3
COc1cccc2ccc(-c3nnc4ccc([C@H](N5CC[C@H](N)C5)C(F)(F)F)cn34)nc12 [Example 8, (S)-1-((S)-2,2,2-trifluoro-1-(3-(8-methoxyquinolin-2-yl)-[1,2,4]triazolo[4,3-a]pyridin-6-yl)ethyl)pyrrolidin-3-amine dihydrochloride] | 151 | 1.31 | 2.5
CC(C)(C)c1cccc2ccc(-c3nnc4ccc([C@@H](N5CC[C@H](NCCO)C5)C(F)(F)F)cn34)nc12 [Example 100, 2-((S)-1-((R)-1-(3-(8-tert-butylquinolin-2-yl)-[1,2,4]triazolo[4,3-a]pyridin-6-yl)-2,2,2-trifluoroethyl)pyrrolidin-3-ylamino)ethanol dihydrochloride] | 6.5 | 0.1 | 1.1

From patent publication US8889704B2 (Array BioPharma Inc., priority 2011, dated 2014)
